Consider six molecules from patent publication US9968574B2, “Treatment of MCI and Alzheimer's disease” (The University of Kentucky Research Foundation, priority 2009, dated 2018).

Molecules are shown by their SMILES. “Also recorded” adds a separate entry of the source. Like-named read-outs stand apart in the source and are kept apart here.

The subject of data set [1] is H4 neuroglioblastoma cells stably transfected to overexpress amyloid precursor protein (APP). The experiment in a line: Aβ1-42 secreted into medium by H4 cells overexpressing APP, ELISA. The format is cell-based. As to the method:
H4 neuroglioblastoma cells stably transfected with a construct overexpressing amyloid precursor protein (APP) secret Aβ1-42 into the culture medium. […] The Aβ levels in the culture medium were measured using ELISAs (Invitrogen).
We then tested if other calcium channel blockers can inhibit Aβ 1-42 generation in H4 neuroglioma cultures. Known calcium channel blockers such as Amilodpine, Dilitiazem, Felodipine, Isradipine, Nicardipine, and Nimodipine were used in this experiment.
In general terms: In an ELISA, binding on a coated surface is turned into a signal by an enzyme label.

Data set [2] deals with mice. Nature of the data set: Aβ and Aβ processing proteins in mice, ELISA and Western blot. The data set is classed as in vivo, mouse. Particulars: IP injections (nitroso-nifedipine 35 mg/kg, 3 days). On the procedure:
It is contemplated that increased ADAM-10 levels lead to increased cleavage at the alpha secretase position of APP, minimizing generation of Aβ.
The effects of NFD-L1 on levels of enzymes involved in Aβ processing in vivo were determined using a similar procedure to that described in Example 15.

For data set [3], the system named is H4 neuroglioma cultures that overexpress APP. The experiment in a line: Levels of enzymes involved in Aβ processing in H4 cultures overexpressing APP, immunohistochemistry. The format is cell-based. On the procedure: Following treatment, cultures were rinsed three times in PBS and fixed in 70% methanol/30% acetone for 30 minutes at −20° C. Cultures were then subjected to immunohistochemistry for BACE, PS-1, GPCR-3, nicastrin, and ADAM (the enzyme responsible for alpha secretase cleavage). 30 to 50 cells were imaged in 4-5 fields/dish (3 dishes each treatment) (FIG. 22). […] Alpha secretase cleavage leads to decreased Aβ1-42.
Using a similar procedure as described in Example 13, H4 neuroglioma cultures were treated with NFD-L1 to determine the effects of NFD-L1 on levels of enzymes involved in Aβ processing.

The test system of data set [4] is Human astrocytoma cells. The experiment in a line: Inflammatory cytokine ELISAs in astrocytoma cultures. The format is cell-based. The note with it: for IL-1 secreted in the medium / IL-6 secreted in the medium / TNF-α secreted in the medium: 24 hours. On the procedure:
Following exposure medium was collected from each well and levels of inflammatory cytokines ([…], TNF-α, TGF-β and […]) were determined using commercially available ELISAs.
It was reported that inflammatory response elements (cytokines) are elevated in Alzheimer's disease patients. The inventors tested the nifedipine mix and individual analogs in astrocytoma cultures. Human astrocytoma cells were plated at 2.5×10^5 cells/well in 6 well culture plates and were grown for 24 hours. […] Three 6-well plates were subjected to each treatment. Following treatment, medium was collected from each well and levels of IL-1β, IL-6, TNF-α and TGF-β were measured using commercially available ELISAs.
Using a similar procedure to that described in Example 3, NFD-L1 was tested in astrocytoma cultures.

Data set [5] concerns the target T1, beta secretase (BACE) (Homo sapiens, UniProt P56817).
T1 construct: purchased Invitrogen
Nature of the data set: BACE activity, fluorescent substrate and purified recombinant BACE (Invitrogen kit). The data set is classed as biochemical. As to the method: BACE activity was measured using a fluorescent substrate and purified recombinant BACE as part of a commercial kit from Invitrogen.
Using a similar procedure as described in Example 8, NFD-L1 was tested for inhibition of BACE activity.

Data set [6] relates to PDS/TTR complex. Nature of the data set: PDS/TTR complex expressed into culture medium by choroid plexus epithelial cells, Western blot. Particulars: control epithelial cells, 5 μM acrolein, 72 hours. The data set is classed as cell-based, human. In general terms: Immunoblotting shows a protein as a band on a membrane.
Method: For these experiments, primary cultures of choroid plexus epithelial cells were established from short post mortem interval autopsies using established methods. AD and normal control cultures were grown to confluence in MEM growth medium containing 2% fetal bovine serum and 1% epithelial growth factor (EGF). Normal control cultures were switched to Opti-MEM containing N2 supplement and were treated with vehicle (controls) or with 5 μM acrolein for 72 hours. […] After treatment, medium was collected from each flask and was desalted using PD-10 columns. The eluted proteins were then freeze-dried, resuspended in 25 μl water and analyzed using Western blot analysis and antibodies specific to PDS and TTR.
The amount of PDS/TTR secreted into the culture medium by each culture was determined by Western blot analysis as described above.
Data set [7] relates to PDS/TTR complex. Nature of the data set: PDS/TTR-positive epithelial cells by immunostaining. The format is cell-based, human. Particulars: acrolein alone. An excerpt: In addition, immunostaining was used to determine the PDS/TTR-positive cells and the numbers of PDS/TTR-positive cells from treated and untreated cell cultures were counted and compared.
For data set [8], the system named is C57/B16 mice. The experiment in a line: EAAT2 in tissue of treated mice, Western blot. The data set is classed as in vivo, mouse. The note with it: 25 mg/kg, 3 days.
The test system of data set [9] is orphan G-coupled receptor protein 3 (GPCR-3). Particulars: H4 cells, 1 μM (0.5 μM T3/0.5 μM T4), 16 hours. On the procedure: Levels of GPCR-3 were measured using Western blot analysis using a GPCR-3 specific antibody.
Data set [10] shares this test system. Particulars: mice of Example 10. As to the method: (§1) Based on the in vitro data described above, the inventors initiated an acute exposure study in 3 month old C57-Black-6 (C57BL/6) mice.
In addition, GPCR-3 levels were determined in the C57BL/6 mice described above in Example 10 using Western blot analysis.

In data set [11] the test system is C57/B16 mice. The experiment in a line: Brain Aβ1-40 in mice given nitroso-nifedipine IP, Covance ELISA. The note with it: 35 mg/kg IP, 3 days. The data set is classed as in vivo, mouse. On the procedure: The animals were sacrificed 15 minutes following the final injection. Brains were quickly removed, split into hemispheres, and snap frozen in liquid nitrogen. Brains were shipped on dry ice and maintained at −80° C. until used for analysis. One hemisphere of each brain was homogenized in diethylamine (200 mg wet weight/mL) containing complete protease inhibitors using a Dounce homogenizer. Homogenate was centrifuged at 16,000×g for 30 minutes and 50 μL soluble protein subjected to Aβ1-40 quantification using a Covance ELISA per manufacturer's instructions. Results are expressed as % vehicle treated animals.

Data set [12] has as its system H4 neuroglioma cultures. The experiment in a line: Calcium influx after KCl depolarization in H4 cultures, Fluo-4 AM confocal microscopy. The format is cell-based. The note with it: 1 μM nifedipine or […] nitroso-nifedipine, 1 hour. On the procedure:
Cells were depolarized by addition of 40 μL 100 mM KCl and calcium levels quantified 30 seconds following depolarization by confocal microscopy (n=75-100 cells/dish for 3 dishes/treatment).

Data set [13] can be described thus: Liver toxicity study: serum alkaline phosphatase in mice. The data set is classed as in vivo, mouse.
Data set [14] deals with H4 neuroglioma cultures. The experiment in a line: Survival of H4 cells, MTT reduction. The data set is classed as cell-based. The note with it: increasing concentrations, 16 hours. On the procedure:
Specifically, H4 neuroglioma cultures were plated at a density of 2.5×10^5 cells/well and allowed to attach overnight. […] Following treatment, MTT was added at a final concentration of 0.5 mg/mL and cultures incubated for 30 minutes. Following MTT treatment, medium was removed and the formazan crystals generated by mitochondrial conversion of MTT were dissolved in DMSO and absorbance was measured at 650 nm. Data are reported as mean±SEM % control MTT reduction (FIG. 21).
Background: Tetrazolium assays rely on reduction of a dye to a coloured formazan, in cell work by metabolically active cells.

For data set [15] the following is noted: mouse, in vivo.
Source text: as §1

T1 sequence (P56817 46-501): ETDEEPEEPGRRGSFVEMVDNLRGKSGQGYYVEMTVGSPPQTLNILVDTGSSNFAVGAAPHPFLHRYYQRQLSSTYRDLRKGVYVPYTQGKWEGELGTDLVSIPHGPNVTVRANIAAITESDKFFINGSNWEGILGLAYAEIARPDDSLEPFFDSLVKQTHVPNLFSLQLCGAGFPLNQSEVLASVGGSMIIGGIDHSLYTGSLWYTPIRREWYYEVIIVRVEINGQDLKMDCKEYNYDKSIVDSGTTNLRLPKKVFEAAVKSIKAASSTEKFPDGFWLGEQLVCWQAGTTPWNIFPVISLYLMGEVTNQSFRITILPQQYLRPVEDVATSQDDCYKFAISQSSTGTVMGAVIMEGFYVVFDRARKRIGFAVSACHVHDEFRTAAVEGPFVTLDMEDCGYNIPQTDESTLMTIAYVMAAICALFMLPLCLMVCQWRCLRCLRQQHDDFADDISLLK

Regarding `COc1ccc([C@@H]2Sc3ccccc3N(CCN(C)C)C(=O)[C@@H]2OC(C)=O)cc1` [Dilitiazem, reference compound], the “Aβ formation, calcium channel blocker combined with T3/T4” value in data set [1] (1 μM with T3/T4, 16 hours) is recorded as “significant decrease”.

As to `COC(=O)c1c(C)nc(C)c2c(=O)[nH]c3ccccc3c12` [NFD-L1], in [2], the ADAM-10 level result is reported as “significant increase”, the Aβ1-40 level result is recorded as “significant decrease”, the “cleaved Notch-1 level” value is “significant increase” and the presenilin-1 level entry is “significant decrease”. Besides, in data set [3], the ADAM-10 level entry is on record as “significant increase”, the BACE protein level entry was “significant decrease”, the PS-1 level result was “significant decrease” and the “nicastrin (NCT) level” value was “significant decrease”. Also, in data set [4], the inflammatory cytokine production result is listed as “inhibited”, the “IL-1 secreted in the medium” value is “significantly reduced”, the “IL-6 secreted in the medium” value is “significantly reduced” and the “TNF-α secreted in the medium” value is on record as “significantly reduced”. The BACE activity result in data set [5] (agent alone) is listed as “significantly inhibits”. For the same molecule, the “Aβ 1-42 generation” value in [1] (procedure similar to Example 6) was “inhibited”.

With `C=CC=O` [acrolein], the “expression of the PDS/TTR complex in culture medium” value in [6] was “increased”. In addition, the “number of PDS/TTR-positive cells, % of untreated control” value in data set [7] is recorded as “about 600%”.

Regarding `COC(=O)C1=C(C)NC(C)=C(C(=O)OC)C1c1ccccc1[N+](=O)[O-]` [nifedipine, 1,4-dihydro-2,6-dimethyl-4-(2-nitrophenyl)-3,5-pyridinedicarboxylic acid dimethyl ester], in data set [8], the EAAT2 level entry is reported as “significant increase”. The BACE activity result in data set [5] (agent alone) and in data set [5] (in combination with thyroxine) was “slightly inhibited” each time. The results for the GPCR-3 expression level result in [9] and in data set [10] were “significantly reduced” and “reduced”, respectively.

For the molecule `COC(=O)c1c(C)nc(C)c(C(=O)OC)c1-c1ccccc1N=O` [nitroso-nifedipine, 2,6-dimethyl-4-(2-nitrosophenyl)-3,5-pyridinedicarboxylic acid dimethyl ester], in data set [11], the “levels of Aβ1-40, % vehicle treated animals” value is listed as “significant decrease”. For the same molecule, in data set [2], the ADAM-10 level result is listed as “significant increase”, the Aβ1-40 level result is “significant decrease”, the “cleaved Notch-1 level” value was “significant increase” and the presenilin-1 level entry is reported as “significant decrease”. Moreover, in [3], the ADAM-10 level entry was “significant increase”, the BACE protein level result is listed as “significant decrease”, the GPCR-3 level entry is on record as “significant increase” and the PS-1 level result is on record as “did not significantly alter”. The “nicastrin (NCT) level” value in data set [3] is on record as “did not significantly alter”. The BACE activity entry in [5] (agent alone) was “significant inhibition; also recorded: significantly inhibits”. Further, the BACE activity result in data set [5] (in combination with thyroxine) is on record as “significant inhibition”. In data set [12], the “Ca influx following depolarization” value is “significant increase”. Also, the “serum alkaline phosphatase level” value in data set [13] (35 mg/kg) is on record as “significant decrease”. Further, the “serum alkaline phosphatase level” value in data set [13] (any dose) is “did not significantly increase”. The liver damage result in data set [13] (mice) is given as “does not induce liver damage”. Besides, the “resistance (survival) of H4 cultures compared to nifedipine” value in [14] is listed as “more resistant”.

In the case of `COC(=O)c1c(C)nc(C)c(C(=O)OC)c1-c1ccccc1[N+](=O)[O-]` [oxidized nifedipine, 2,6-dimethyl-4-(2-nitrophenyl)-3,5-pyridinedicarboxylic acid dimethyl ester], the “presence in brain extracts (passing the blood-brain barrier)” value in data set [15] is “found in all samples analyzed”. Also, in data set [4], the “IL-1 secreted in the medium” value was “significantly reduced”, the “IL-6 secreted in the medium” value was “significantly reduced” and the “TNF-α secreted in the medium” value is “significantly reduced”.
